Test results: patent publication US20140073637A1, “AMINO-SUBSTITUTED-ALKYLOXY-BENZO[E]PYRIDO[4,3-B]INDOLE DERIVATIVES AS NEW POTENT KINASE INHIBITORS” (INSTITUT CURIE, priority 2011, published 2014)

What was measured:
H322 = assay: Cell viability test (CellTiter 96 AQueous One Solution); type: cell-based; settings: NCI-H322; H322 (Lung); 72 h of treatment; read-out: IC50 (cell line viability)
Experimental: (§1) H358, H322 (lung cancer cells), U373 (glioblastomes) and HeLa ([…]) were grown in DMEM (1.5 g/L glucose) whereas HL60 (human myeloid cell line) cells were in RPMI 1640. U2OS (a human osteosarcoma cell line) cells were cultured in McCoy's Medium 5 A and liver cells (SK Hep 1) in DMEM (4 g/L glucose, (Gibco-Invitrogen). Media (Gibco-Invitrogen), were supplemented with 10% heat-inactivated foetal bovine serum (Gibco-Invitrogen), L-glutamine (2 mM), penicillin (100 UI/ml) and streptomycin (100 μg/ml).
(§2) Cell proliferation assays were conducted in 96 well culture plates. Assays were run in triplicate. Cell viability was estimated upon 72 h of treatment with varying concentrations of compound by addition of CellTiter 96Queous one Solution Reagent (Promega) directly to culture wells under conditions defined by the manufacturer.

SkHep1 = assay: as above; type: cell-based; settings: Homo sapiens, SK-HEP1; SkHep1 (Liver cells); 72 h of treatment; read-out: IC50 (cell line viability)
Experimental: as §1, §2

HeLa cells = assay: Cell cycle analysis by FACS (propidium iodide); type: cell-based; settings: 0.5 μM
Experimental: The influence of the C14 treatment versus C1 and control (Te) were analysed by FACS following propidium iodine labelling. C1 and C14 were added at the concentration of 0.5 μM and the treatment lasted either 30 h or 48 h. On the top histogram, arrows allowed the visualization of the different phases of the cell cycle and the corresponding data are reported in Table 4.
HeLa cells were incubated in the presence of either C1 (0.5 μM) or C14 (0.5 μM) or DMSO (Te) and the reparation of the cells in the different phases is analyzed by FACS.
Cells were incubated in either the presence or the absence of compounds. For determination of cell cycle profile, cells were fixed by ice-cold 70% ethanol for 1 h and then, incubated with propidium iodide solution (50 μg/ml PI in the presence of 0.2 mg/ml RNAse) for 15 minutes at 37° C. DNA content was measured using the FACS flow cytometer equipped with CellQuest Pro software (Becton Dickinson, San Diego, Calif.).

Aurora A = target: T1, Aurora A (Homo sapiens, UniProt O14965); assay: Kinase profiling in vitro at 1 μM; type: biochemical; settings: for remaining activity at 1 µM / effect on kinase activity (FIG. 2, in words): Aurora A; for remaining activity at 1 µM: compound at 1 μM, read-out: percentage of remaining activity of recombinant kinase; for effect on kinase activity (FIG. 2, in words): recombinant kinase in vitro
T1 sequence (O14965 1-403): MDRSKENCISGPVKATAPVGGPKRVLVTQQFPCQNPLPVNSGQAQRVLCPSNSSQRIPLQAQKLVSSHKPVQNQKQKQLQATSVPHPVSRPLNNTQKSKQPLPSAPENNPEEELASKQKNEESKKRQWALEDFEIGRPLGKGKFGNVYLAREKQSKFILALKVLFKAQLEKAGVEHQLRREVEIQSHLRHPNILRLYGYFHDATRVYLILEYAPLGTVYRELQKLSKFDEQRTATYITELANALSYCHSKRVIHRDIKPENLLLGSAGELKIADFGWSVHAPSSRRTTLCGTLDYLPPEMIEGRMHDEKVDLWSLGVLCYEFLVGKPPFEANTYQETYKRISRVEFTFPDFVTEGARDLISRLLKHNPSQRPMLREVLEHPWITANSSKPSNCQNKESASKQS
Experimental: (§3) Assays were run in vitro against recombinant kinases. The activity is reported for each kinase, grey histograms for CH21, white for C14 and gradation grey for C1. […] Therefore, C1 and C14 affect differently the Aurora kinase family.
The specificity of C14 was tested, in vitro, against 121 kinases representative of the kinome. Assays run in duplicate, at the concentration of 1 μM, were performed by MRC (Dundee, UK). Results are represented in FIG. 1. The main targets are highlighted in FIG. 1B.
In addition, the percentage of remaining activity of recombinant kinases Aurora kinases A and B and Checkpoint kinases 1 and 2 at the concentration of 1 μM of C1, C2 and C14 have been determined.
(§4) The profiling was performed at the MRC (Dundee University), in duplicate, on a set of 121 kinases. The panel is representative of the major different classes of kinases. Compounds were used at the concentration of 1 μM. In vitro, IC50 were determined on recombinant kinases by Reaction biology Corp (USA).

RSK2 = RSK2 (Homo sapiens, UniProt P51812); assay: In vitro assay against recombinant kinases (FIG. 2); type: biochemical
RSK2, sequence (P51812 whole entry): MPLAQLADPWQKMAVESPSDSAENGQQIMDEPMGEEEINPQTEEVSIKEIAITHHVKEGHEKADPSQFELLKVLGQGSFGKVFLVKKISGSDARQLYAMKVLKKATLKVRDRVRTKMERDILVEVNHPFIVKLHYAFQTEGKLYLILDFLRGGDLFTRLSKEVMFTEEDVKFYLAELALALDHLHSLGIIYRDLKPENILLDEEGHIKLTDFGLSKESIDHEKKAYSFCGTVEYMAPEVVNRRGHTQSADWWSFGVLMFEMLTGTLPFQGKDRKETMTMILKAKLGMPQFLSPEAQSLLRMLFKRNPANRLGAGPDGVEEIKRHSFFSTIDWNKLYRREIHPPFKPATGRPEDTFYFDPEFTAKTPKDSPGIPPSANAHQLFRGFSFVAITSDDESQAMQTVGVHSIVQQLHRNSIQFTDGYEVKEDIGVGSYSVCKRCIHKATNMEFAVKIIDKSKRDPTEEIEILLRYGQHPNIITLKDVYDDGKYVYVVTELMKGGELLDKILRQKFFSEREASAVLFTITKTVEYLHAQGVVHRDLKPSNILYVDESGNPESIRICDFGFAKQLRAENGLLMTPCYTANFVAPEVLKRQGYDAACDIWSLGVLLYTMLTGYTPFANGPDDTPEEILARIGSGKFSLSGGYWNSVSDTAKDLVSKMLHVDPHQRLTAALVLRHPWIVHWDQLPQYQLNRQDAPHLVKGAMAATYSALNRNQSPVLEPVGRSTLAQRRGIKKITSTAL
Experimental: as §3, §4

Src = Src (Homo sapiens, UniProt P12931); assay: as above; type: biochemical
Src, sequence (P12931 whole entry, species assumed): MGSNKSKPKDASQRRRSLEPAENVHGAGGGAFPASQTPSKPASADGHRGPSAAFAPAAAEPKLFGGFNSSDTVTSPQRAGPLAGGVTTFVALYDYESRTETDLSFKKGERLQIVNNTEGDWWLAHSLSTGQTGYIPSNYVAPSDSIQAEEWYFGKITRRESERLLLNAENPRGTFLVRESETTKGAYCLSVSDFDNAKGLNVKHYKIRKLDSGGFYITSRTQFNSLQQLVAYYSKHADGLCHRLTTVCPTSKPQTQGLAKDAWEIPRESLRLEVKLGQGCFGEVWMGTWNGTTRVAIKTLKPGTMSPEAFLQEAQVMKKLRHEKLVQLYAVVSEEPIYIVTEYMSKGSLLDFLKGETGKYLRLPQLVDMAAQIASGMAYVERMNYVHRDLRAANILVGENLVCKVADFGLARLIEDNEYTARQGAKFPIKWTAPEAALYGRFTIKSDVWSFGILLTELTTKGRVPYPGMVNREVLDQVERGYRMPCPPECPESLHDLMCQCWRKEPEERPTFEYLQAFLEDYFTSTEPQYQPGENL
Experimental: as §3, §4

[1] = system: HeLa cells stably expressing aurora B-GFP; assay: Time-lapse of HeLa cells expressing aurora B-GFP; type: cell-based; settings: 0.5 μM; continuous imaging
Experimental: FIG. 7A: Cells treated by either DMSO (CO: control) or C1 (0.5 μM) or C14 (0.5 μM) were continuously imaged with a ZEISS confocal microscope. […] Mitotic cells were found fluorescent and GFP was concentrated on the centromeres. In control conditions, centromere aligned at metaphase and upon anaphase ongoing fluorescence concentrates on the spindle and finally in the midbody (A, CO). The shape of the cells is visualized by white dotted lines.
HeLa cells expressing aurora B-GFP were treated by either C14 (0.5 μM) or C1 (0.5 μM) or DMSO (control; Co). Mitotic cells were continuously imaged under controlled conditions (37° C. and 5% CO2). The localisation of aurora B-GFP is represented and the elapsed time indicated in the three conditions (FIG. 7A). Control cells divided normally; Aurora B presented on the centromeres (FIG. 7A, CO, To and 10 min) was then transferred on microtubules (FIG. 7A, CO 45 min) and finally concentrated in the mid body (FIG. 7A, CO, 1 h). […] These cells escaped from mitosis without anaphase and gave rise to micronuclei (FIG. 7B, C1). In the presence of C14 (0.5 μM), chromosome aligned normally (FIG. 7B, C14 To) and aurora B-GFP was found accumulated in the mid-zone (FIG. 7B, C14, 18 min, 40 min and 2 h). Finally, these cells spread again without division (FIG. 7B, C14 4 h). […]

| IC50 (H322) [nM] | remaining activity at 1 µM (Aurora A) [%] | effect on kinase activity (FIG. 2, in words) (Aurora A) | effect on kinase activity (FIG. 2, in words) (RSK2) | effect on kinase activity (FIG. 2, in words) (Src) | Structure (SMILES) | IC50 (SkHep1) [nM] | <2N in % (HeLa cells; 30 h) [%] | >4N in % (HeLa cells; 30 h) [%] | G0/G1 in % (HeLa cells; 30 h) [%] | G2/M in % (HeLa cells; 30 h) [%] | S in % (HeLa cells; 30 h) [%] | <2N in % (HeLa cells; 48 h) [%] | >4N in % (HeLa cells; 48 h) [%] | G0/G1 in % (HeLa cells; 48 h) [%] | G2/M in % (HeLa cells; 48 h) [%] | S in % (HeLa cells; 48 h) [%] | impairment of mitosis (in words) [1] | further results |
| --- | --- | --- | --- | --- | --- | --- | --- | --- | --- | --- | --- | --- | --- | --- | --- | --- | --- | --- |
| > 4000 | 76 | not affected | not affected | not affected | Cc1c[nH]c(=O)c2c1[nH]c1ccc3cc(OCCN(C)C)ccc3c12 [Compound C14, 3-(2-N,N-Dimethylaminoethoxy)-8-methyl-7H,10H-benzo[e]pyrido(4,3-b)indol-11-one] | 2000 | 19 | 56 | 3 | 18 | 4 | 22 | 56 | 2 | 4 | 2 | affected cytokinesis | cells in G0/G1 and S (HeLa cells; 30 h): 7%; cells in G0/G1 and S (HeLa cells; 48 h): 5%; remaining activity (Aurora A; at 1 μM): 76% |
|  | 7 | highly inhibited | highly inhibited | highly inhibited | CCc1c[nH]c(=O)c2c1[nH]c1ccc3cc(OC)ccc3c12 [Compound C1, reference compound] |  | 6 | 26 | 24 | 28 | 13 | 6 | 41 | 18 | 22 | 8 | prevented anaphase ongoing | cells still cycling (HeLa cells; after 48 h of treatment): 48% |

| Structure (SMILES) | IC50 (H322) [nM] | remaining activity at 1 µM (Aurora A) [%] | effect on kinase activity (FIG. 2, in words) (Aurora A) | effect on kinase activity (FIG. 2, in words) (RSK2) | effect on kinase activity (FIG. 2, in words) (Src) | IC50 (SkHep1) [nM] | <2N in % (HeLa cells; 30 h) [%] | >4N in % (HeLa cells; 30 h) [%] | G0/G1 in % (HeLa cells; 30 h) [%] | G2/M in % (HeLa cells; 30 h) [%] | S in % (HeLa cells; 30 h) [%] | <2N in % (HeLa cells; 48 h) [%] | >4N in % (HeLa cells; 48 h) [%] | G0/G1 in % (HeLa cells; 48 h) [%] | G2/M in % (HeLa cells; 48 h) [%] | S in % (HeLa cells; 48 h) [%] | impairment of mitosis (in words) [1] | further results |
| --- | --- | --- | --- | --- | --- | --- | --- | --- | --- | --- | --- | --- | --- | --- | --- | --- | --- | --- |
| Cc1cncc2c1[nH]c1ccc3cc(OCCN(C)C)ccc3c12 [CH21, 3-(2-N,N-dimethylaminoethyloxy)-8-methyl-7H-benzo[e]pyrido(4,3-b)indole] | 800 |  | None of these kinases were significantly affected | None of these kinases were significantly affected | None of these kinases were significantly affected | 450 |  |  |  |  |  |  |  |  |  |  |  |  |
